This is an account of results in patent publication US5464834A, “N-substituted N'-heterobicyclic piperazines having pharmaceutical activity” (Adir et Compagnie, priority 1992, dated 1995).

Assay [1] addresses T1, 5HT1A receptors (Rattus norvegicus, UniProt P19327).
T1 sequence (P19327 1-422): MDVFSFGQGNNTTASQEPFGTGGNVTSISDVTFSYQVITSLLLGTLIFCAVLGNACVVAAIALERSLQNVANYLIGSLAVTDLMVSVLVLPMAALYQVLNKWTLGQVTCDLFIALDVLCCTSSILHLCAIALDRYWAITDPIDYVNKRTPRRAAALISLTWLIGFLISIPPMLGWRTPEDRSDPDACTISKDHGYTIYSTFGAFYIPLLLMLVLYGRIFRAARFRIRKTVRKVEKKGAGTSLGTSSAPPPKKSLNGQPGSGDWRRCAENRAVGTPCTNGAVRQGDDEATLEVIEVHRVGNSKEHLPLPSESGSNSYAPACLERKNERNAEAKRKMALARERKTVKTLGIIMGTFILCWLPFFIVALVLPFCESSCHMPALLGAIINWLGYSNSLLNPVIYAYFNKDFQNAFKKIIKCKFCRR
The assay is described as follows: Corticosterone secretion (CS), agonist (alone) and antagonist (vs 8-OH-DPAT). Type of assay: in vivo, rat (male Wistar). Also noted: from tissue; host or cells: whole living male Wistar rats (endogenous receptor). As to the method:
(§1) The tests were carried out using male Wistar rats weighing 200 to 220 g having free access to their food and to their drinking water in standard cages.
(§2) The animals are isolated individually for the tests for hypothermia, corticosterone secretion and flat body posture, or combined in groups of three for the tailflick test.
(§3) The compounds to be studied were administered by the subcutaneous route (s.c.) 60 minutes before the beginning of the test, that is to say 30 minutes before the solvent (agonist responses) or the 8-OH-DPAT (antagonist responses).
(§4) In all of the tests the solvent is used in parallel as a control. The animals were left to rest in their cage during the period between the injections and the evaluation. For the agonist studies, the solvent was administered at 1 ml/kg s.c. 30 minutes before the beginning of the test. For the antagonist studies, doses of 8-OH-DPAT that induce sub-maximal responses were chosen, that is doses of 0.63, 0.16, 0.16 and 0.16 mg/kg s.c. for, respectively, the tail flick test, flat body posture test, corticosterone secretion test and hypothermia test.
(§5) The same animals were used to evaluate the influence of the compounds studied on FBP and on the determination of the plasma concentration of CS. All of the tests were carried out in the morning between 10.30 and 12.300 that is to say when the circadian levels of CS are lowest.
(§6) The presence of FBP is defined by a characteristic posture of the animal. That posture is in the ventral decubitus position with the posterior limbs clearly extended. 5 minutes after the observation of FBP, the animals are decapitated and the blood from the trunk is collected in cooled tubes containing 50 μl of a 10% EDTA solution. After centrifugation at 4000 revs/min, the plasma is removed and stored at -30° C. until determination.
The CS was determined by a radio-competitive determination for a plasma protein that binds the CS: transcortine. The latter is obtained from a monkey serum. The separation of the CS-transcortine complexes from the free CS was carried out by means of a solution of dextran and active carbon. The detection limit was 50 pg/tube. The intra- and inter-experiment variations in determination were 5 and 15% respectively [cf Rivet J. M. et al, Eur. J. Pharmacol., 183,634-635 (1990)].
The CS base rates in the plasma never being zero, the following formula was used to calculated the percentage inhibition of plasma CS induced by 8-OH-DPAT: [formula]
(§7) In general, after variance analysis, the results are subjected to the Dunett test. The results are taken as significant if p <0.05.
(§8) The doses of the compounds tested are all expressed in base terms. Unless specified otherwise, all of the compounds were dissolved in sterile water (to which if necessary a few drops of lactic acid were added) and administered at a volume of 1 ml/kg s.c.

The target in assay [2] is T1, 5HT1A receptors. The assay is described as follows: Spontaneous tail flick (STF) test, agonist (alone) and antagonist (vs 8-OH-DPAT). Type of assay: in vivo, rat (male Wistar). Details: from tissue; host or cells: whole living male Wistar rats (endogenous receptor). How it is done: as §1, §2, §3, §4
The tail flicks were determined on the animals in horizontal opaque plastics cylinders with the tail of the animals hanging freely on the edge of the laboratory work bench. After allowing 5 minutes for adaptation, the number of movements made in 5 minutes was recorded. An STF is defined as being an elevation of the tail to a level higher than that of the axis of the body [Millan M. J. et al., J. Pharmacol. Exp. Ther., 256, 973-982 (1990)].
as §7, §8

Assay [3] deals with T1, 5HT1A receptors. In words: Flat body posture (FBP), agonist (alone) and antagonist (vs 8-OH-DPAT). Type of assay: in vivo, rat (male Wistar). Also noted: from tissue; host or cells: whole living male Wistar rats (endogenous receptor). How it is done: as §1, §2, §3, §4, §5
25 minutes after the treatment (that is to say 5 minutes before decapitation) the animals are observed in their cages and the presence or absence of FBP is noted.
as §6, §7
For the dose-response for the induction and inhibition of FBP, the ED50 values (doses at which 50% of the animals show a response) were calculated by the Litchfield and Wilcoxon method.
as §8

The target in assay [4] is T1, 5HT1A receptors. In words: Body temperature / hypothermia, agonist (alone) and antagonist (vs 8-OH-DPAT). Type of assay: in vivo, rat (male Wistar). Details: from tissue; host or cells: whole living male Wistar rats (endogenous receptor). As to the method:
as §1, §2, §3, §4
The rats are immobilised and a lubricated digital thermometer (Termistroprobe of Testotherm, Basle, Switzerland) is inserted into the rectum to a depth of 5 cm. 30 seconds after insertion, the temperature is read on a digital scale. The percentage inhibition is calculated using the formula given above.
as §7, §8

Assay [5] addresses T1, 5HT1A receptors. In words: Drug discrimination (DD) 8-OH-DPAT. The settings on record: rat, sc. Type of assay: in vivo, rat (male Wistar). Details: from tissue; host or cells: whole living male Wistar rats (endogenous receptor). As to the method: as §1
Male rats are maintained at 85% of their normal body weight by means of food restriction. In soundproofed chambers the animals are trained to press a pedal to obtain food according to an FR10 procedure (Fixed Ratio 10; the food is supplied to the rat when it has pressed the lever 10 times).
Daily sessions of 15 minutes are preceded by an injection of solvent or of the training drug (0.31 mg/kg of 8-OH-DPAT, j.p.). The animal receives a pellet of food after pressing 10 times on the "solvent" or "drug" pedal according to the compound administered before the session.
After the learning period the animals are tested twice a week (Wednesday and Friday). On the other three days training sessions are carried out.
On the training days the rats are given either solvent or 8-OH-DPAT 15 minutes before being tested.
On the test days the rats receive the chemical substance 60 minutes before the session.
The capacity of the chemical substance administered to induce a response (pressing on the "solvent" or "drug" (8-OH-DPAT ) lever ) is recorded.
7 animals chosen at random are used for each substance and for each dose. During the test period, the lever on which the rat first presses 10 times is determined as the lever chosen--a food pellet is then delivered. That selected lever will be reinforced by the delivery of food up to the end of the test session. The percentage of animals selecting the "drug" lever at a particular dose is calculated. In addition, the total number of responses carried out on the two levers is expressed as a percentage of the number of responses carried out on the "solvent" lever obtained on the occasion of a preceding training session.
as §8

The subject of the next assay is 5HT1A receptor. In words: Overall in vivo agonist/antagonist behaviour at 5HT1A receptors. Also noted: species or system rat (male Wistar). The settings on record: Tables 1 and 2.
Where [6] appears, read: agonist test, compound alone s.c., minimum effective dose vs control.

Molecules are shown by their SMILES.

Turning to `O=C1CC2(CCCC2)CC(=O)N1CCCCN1CCN(c2ncccn2)CC1` [buspirone, reference compound], the “CS secretion MED alone” value on 5HT1A receptors [1] (setting [6]) was 2.5 mg/kg. Also, the ED50 on 5HT1A receptors [1] (rat, sc, read-out: CS secretion ID50 (95% CL) + DPAT) was greater than 10 mg/kg; on 5HT1A receptors [3] (rat, sc, read-out: FBP ID50 (95% CL) + DPAT), greater than 10 mg/kg; at 5HT1A receptors [4] (rat, sc, read-out: HYPOTHERMIA ID50 (95% CL) + DPAT) it was greater than 10 mg/kg; on 5HT1A receptors [5] (read-out: DD 8-OH-DPAT ED50 (95% CL) alone), 1.35 mg/kg; at 5HT1A receptors [5] (read-out: DD 8-OH-DPAT ID50 (95% CL) + DPAT) it was greater than 2.5 mg/kg. Further, on 5HT1A receptors [1] (vs 8-OH-DPAT 0.16 mg/kg s.c.), the “% MPA (% maximum possible antagonism), CS secretion” value is reported as 0%. The “STFs MED alone” value at 5HT1A receptors [2] (setting [6]) was greater than 40.0 mg/kg. Also, on 5HT1A receptors [2] (vs 8-OH-DPAT 0.63 mg/kg s.c.), the “% MPA (% maximum possible antagonism), STFs” value is reported as 86%. Further, the “% MPA (% maximum possible antagonism), FBP” value on 5HT1A receptors [3] (vs 8-OH-DPAT 0.16 mg/kg s.c.) was found to be 0%. Moreover, the “H[…] alone” value on 5HT1A receptors [4] (setting [6]) is recorded as 2.5 mg/kg. Further, at 5HT1A receptors [4] (vs 8-OH-DPAT 0.16 mg/kg s.c.), the “% MPA (% maximum possible antagonism), HYPOTHERMIA” value is given as 0%. Moreover, the “behaviour at 5HT1A receptor (agonist/antagonist, in words)” value in the assay on 5HT1A receptor is “agonist behaviour”.
